Measured values from patent publication US9363996B2, “Compositions and method for blocking ethylene response in field crops using 3-(cy-clopropyl-l-enyl)-propanoic salt” (Yissum Research Development Company of the Hebrew …, priority 2009, dated 2016).

Experiments:
young cotton seedlings = experiment: Ethylene-induced chlorophyll degradation in young cotton seedlings; assay type: in vivo, cotton (Gossyium hirsutum barbadense L.); settings: for increase of chlorophyll content compared with the untreated control: ethylene 10 μL L^−1
Procedure: (1) Abscission-This is a very sensitive model system for studying the effects of plant hormones. Ethylene induces the process of abscission, while auxin delays it. In the laboratory the experimental system is based on plant organ explants, which include the abscission zone. Abscission is induced by exposure to ethylene and at the termination of the experiment the number of abscised organs, usually either leaf blades or petioles are counted and the fraction of abscission is calculated. In the case of fruit, the decrease in fruit retention force is analyzed. […] The plants or explants are then further exposed for 24 h to ethylene gas (5 to 20 μL L^-1). The plants or explants are then ventilated and incubated for the required time under controlled conditions. At the end of the experiment the percentage of abscission is determined. […] Plant material (whole plants, excised leaves or leaf discs) are pretreated. […] The plants or explants are then ventilated and incubated for the required time under controlled conditions. At the end of the experiment a dimethylsulfoxide (DMSO) extract of the plant tissue is prepared, and the chlorophyll content of the extract is determined by spectrophotometric analysis. The chlorophyll content is reported either on a fresh, dry weight basis, or on a surface area basis. (3) Epinasty-This is also one of the classical methods for studying ethylene effects in plants. The extent of ethylene-induced epinasty of leaves is determined by measuring the change of the angle between the petiole and the stem shoot or blade. After exposure of the intact plant to ethylene, the upright grown leaves bend downward. […] The plants are then ventilated and incubated for the required time under controlled conditions. The epinastic effect is expressed by measuring the degree values of the downward curvature between the blade and petiole (cotton, FIGS. 1-3) or between the blade and the stem (wheat, FIGS. 31 and 32). […] In this project the intact plants were grown in the greenhouse up to the spike […] stage I and II. […] Young Cotton Seedlings […] The content of chlorophyll in the leaf blades of the treated plants remained the same as in the untreated control (FIGS. 5 and 6).

tobacco seedlings = experiment: Ethylene-induced chlorophyll degradation in tobacco seedling leaves; assay type: in vivo, tobacco (Nicotiana tabacum var. 'Samsun')
Procedure: (1) Abscission—This is a very sensitive model system for studying the effects of plant hormones. Ethylene induces the process of abscission, while auxin delays it. In the laboratory the experimental system is based on plant organ explants, which include the abscission zone. Abscission is induced by exposure to ethylene and at the termination of the experiment the number of abscised organs, usually either leaf blades or petioles are counted and the fraction of abscission is calculated. In the case of fruit, the decrease in fruit retention force is analyzed. In cotton, when WS-CPD (the ethylene-action antagonist herein disclosed) is tested, the whole plants or explants are pretreated by spraying with the antagonist, dissolved in a phosphate buffer solution (10-20 mM, pH 7.0) including 0.1% commercially available Kinetic™ as surfactant, and left to incubate for a predetermined time, usually between 6 and 24 h. The plants or explants are then further exposed for 24 h to ethylene gas (5 to 20 μL L^−1). The plants or explants are then ventilated and incubated for the required time under controlled conditions. At the end of the experiment the percentage of abscission is determined. (2) Chlorophyll degradation—This is a standard model for studying senescence. Plant material (whole plants, excised leaves or leaf discs) are pretreated. In cotton, tobacco and wheat, when WS-CPD is tested, the whole plants or explants are pretreated by spraying with the antagonist, dissolved in phosphate buffer solution (10-20 mM, pH 7.0) including 0.1% commercially available Kinetic™ surfactant, and left to incubate for a predetermined time, usually between 6 and 241. The plants or explants are then further exposed for 24 h to ethylene gas (1 to 100 μL L^−1), or sprayed with Ethephon™ (wheat; 250 to 750 μL L^−1). The plants or explants are then ventilated and incubated for the required time under controlled conditions. At the end of the experiment a dimethylsulfoxide (DMSO) extract of the plant tissue is prepared, and the chlorophyll content of the extract is determined by spectrophotometric analysis. The chlorophyll content is reported either on a fresh, dry weight basis, or on a surface area basis. (3) Epinasty—This is also one of the classical methods for studying ethylene effects in plants. The extent of ethylene-induced epinasty of leaves is determined by measuring the change of the angle between the petiole and the stem shoot or blade. After exposure of the intact plant to ethylene, the upright grown leaves bend downward. The increase in the angle values (degrees) between petiole and the stem is used as a measure of the effect of the ethylene. […]

wheat plants = experiment: Wheat grain yield, 450 ml pots in peat-based medium; assay type: in vivo, wheat (Triticum turgidum var. 'Gdera'); settings: one spray WS-CPD 120 μl L^−1 (so in the source) at milky stage II
Procedure: In another experiment the wheat plants were grown in 450 ml pots in a peat-based medium. The plants were sprayed once with WS-CPD (120 μl L^−1) at milky stage II, 7 months after germination. The results confirmed previous results, showing a −15% increase in grain yield over the weight of the grains of untreated control plants (FIG. 54). This is also evident when calculating the distribution of grain weight (as percentage of the total number of grains) and comparing them with grain weight distribution from control plants.

In the case of `O=C([O-])CCC1=CC1.[Na+]` [WS-CPD, 3-cyclopropyl-1-enyl-propanoic sodium salt], the ethylene-induced chlorophyll degradation (young cotton seedlings; WS-CPD 10 μg mL^−1 pretreatment, ethylene 10 μL L^−1 24 h) was “completely antagonized”, the “increase of chlorophyll content compared with the untreated control” value (young cotton seedlings; WS-CPD 30 μg L^−1 (so in the source)) was 20% and the “increase of chlorophyll content compared with the untreated control” value (young cotton seedlings; WS-CPD 100 μg L^−1 (so in the source)) was 28%. For the same molecule, the ethylene-induced chlorophyll degradation (young cotton seedlings; higher concentrations of WS-CPD (up to 300 μg mL^−1)) was “less effective”, the ethylene-induced chlorophyll degradation (tobacco seedlings; WS-CPD 14 μg mL^−1 pretreatment spray, young and mature leaves) was “completely reversed” and the ethylene-induced chlorophyll degradation (tobacco seedlings; higher concentrations of WS-CPD) was “less effective”. The “increase in grain yield over untreated control plants” value (wheat plants) was −15%.
